In patent US5952511A, “Indolin-2-one derivatives” (Chugai Seiyaku Kabushiki Kaisha, priority 1993, dated 1999):

Columns and labels:
[1] = biological target: T1, CCK-B receptors (rat cerebral cortex) (Rattus norvegicus, UniProt P30553); assay: CCK-B Receptor Binding Test in Rat Cerebral Cortex (Test Example 3); design: species or system rat (Sprague-Dawley, male); conditions: inhibition of specific 125I-CCK-8 sulfated binding (15 pM), 25° C., 120 min
T1 construct: Cerebral cortex was minced in the same buffer, and homogenized with Polytron; from tissue; host or cells: cerebral cortex membrane fraction of Sprague-Dawley male rats
T1 sequence (P30553 1-452): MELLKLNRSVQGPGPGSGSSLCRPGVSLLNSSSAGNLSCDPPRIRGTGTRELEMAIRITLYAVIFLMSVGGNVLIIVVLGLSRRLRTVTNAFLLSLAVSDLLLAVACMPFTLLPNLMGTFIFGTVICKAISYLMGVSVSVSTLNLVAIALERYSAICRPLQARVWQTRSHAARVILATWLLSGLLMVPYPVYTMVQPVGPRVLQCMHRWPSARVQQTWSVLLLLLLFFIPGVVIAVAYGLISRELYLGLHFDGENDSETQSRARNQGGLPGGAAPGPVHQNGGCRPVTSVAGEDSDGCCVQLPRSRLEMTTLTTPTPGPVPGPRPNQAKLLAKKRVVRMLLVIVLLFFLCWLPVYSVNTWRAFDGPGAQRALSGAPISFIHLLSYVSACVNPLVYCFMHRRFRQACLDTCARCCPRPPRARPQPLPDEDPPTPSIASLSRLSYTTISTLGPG
Description: CCK-B Receptor Binding Test in Rat Cerebral Cortex
A rat cortical membrane fraction was prepared in accordance with the method of Chang, et al., Proc. Natl. Acad. Sci., U.S.A., 83, 4923 (1986). Sprague-Dawley male rats were sucrified and the brains were removed and immersed in a 50 mM Tris-HCl buffer (pH 7.4) under ice-cooling, and the cortex was dissected. Cerebral cortex was minced in the same buffer, and homogenized with Polytron. The homogenate was centrifuged at 2,500 g, and the supernatant was further centrifuged at 50,000 g. The pellet was resuspended in a reaction buffer solution (10 mM HEPES, 5 mM MgCl2, 1 mM EGTA, 130 mM NaCl; pH 6.5).
To 150 μl of the resulting rat cerebral cortex suspension were added 20 μl of ^125 I-CCK-8 sulfated (final concentration: 15 pM) and 10 μl of a test compound or a solvent (for total binding) or 1 μM CCK-8 sulfated (for nonspecific binding), and the reaction buffer solution was added there to make 1 ml. The reaction mixture was incubated at 25° C. for 120 minutes, followed by filtration through a GF/B filter (produced by Whatman). The radio-activity of the membrane fraction adsorbed onto the filter was measured with a gamma-counter.
The specific binding to CCK-B receptors was obtained from a difference between the total binding and the nonspecific binding. The IC50 of the test compound in inhibition of specific binding was calculated.

[2] = biological target: T2, gastrin receptors (guinea pig gastric glands) (Cavia porcellus, UniProt H0VZC5); assay: Gastrin Receptor Binding Test in Guinea Pig Gastric Glands (Test Example 1); design: species or system guinea pig (Hartley, male); conditions: inhibition of specific 125I-gastrin I human binding (22.5 pM), 25° C., 45 min
T2 construct: The gastric glands were isolated from the tissue with a pipette; from tissue; host or cells: isolated gastric glands from gastric mucosa of Hartley male guinea pigs
T2 sequence (H0VZC5 1-426): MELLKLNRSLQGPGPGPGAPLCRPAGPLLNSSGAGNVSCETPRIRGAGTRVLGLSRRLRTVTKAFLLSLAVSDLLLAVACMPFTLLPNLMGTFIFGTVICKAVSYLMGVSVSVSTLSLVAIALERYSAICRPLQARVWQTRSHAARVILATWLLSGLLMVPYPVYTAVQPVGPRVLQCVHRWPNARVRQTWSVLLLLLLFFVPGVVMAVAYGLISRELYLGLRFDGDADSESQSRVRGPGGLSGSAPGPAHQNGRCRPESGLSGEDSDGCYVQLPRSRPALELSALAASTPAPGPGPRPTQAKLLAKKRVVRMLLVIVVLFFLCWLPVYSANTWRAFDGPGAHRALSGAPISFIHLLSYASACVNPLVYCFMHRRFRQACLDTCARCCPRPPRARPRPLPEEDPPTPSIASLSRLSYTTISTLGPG
Description: Gastrin Receptor Binding Test in Guinea Pig Gastric Glands
Preparation of Gastric Glands:
Guinea pig gastric glands were prepared according to the method of Chang, et al., Biochem. Biophys. Res. Commun., 134, 895 (1986). The gastric mucosa of a Hartley male guinea pig was peeled off. After washing, the mucosa was minced with scissors in buffer A (Eagle's MEM containing 2 mM L-glutamine and 25 mM HEPES; pH 7.4). After washing, the minced tissue was incubated in buffer A containing 0.025% collagenase, 0.01% soy bean trypsin inhibitor, and 0.1% BSA at 37° C. for 60 minutes under 95% O2 and 5% CO2. The gastric glands were isolated from the tissue with a pipette, washed twice with buffer A, and filtered through a mesh. Then, the gastric glands were obtained by centrifugation.
Guinea pig gastric glands were resuspended in buffer B (Hank's solution containing 10 mM HEPES and 0.2% BSA; pH 7.4) (10 ml of buffer B per guinea pig).
To 200 μl of the suspension containing the resuspended isolated gastric glands were added 20 μl of ^125 I-gastrin I human (final concentration: 22.5 pM). Then, 10 μl of a test compound or a solvent (for total binding) or 10 μM Pentagastrin (for nonspecific binding), and buffer B was added there to make a total volume of 1 ml. The reaction mixture was incubated at 25° C. for 45 minutes and then centrifuged at 12000 g. The supernatant was removed by suction, and the radioactivity of the isolated gastric glands was measured with a gamma-counter.
The specific binding of gastrin to gastrin receptors was obtained from a difference between the total binding and the nonspecific binding. The IC50 of the test compound in inhibition of specific binding was calculated.

gastric acid secretion = assay: Inhibitory Activity on Gastric Acid Secretion in Pylorus Ligated Rats (Test Example 2); assay type: in vivo, rat (Sprague-Dawley, male); conditions: Rattus norvegicus, intraduodenal, 10 mg/kg, i.d., 4 h
Description: Inhibitory Activity on Gastric Acid Secretion in Pyrolus Ligated Rats
Sprague-Dawley male rats weighing about 200 g were deprived of food for 24 hours while allowed water ad libitum. The abdomen was opened under anesthesia with ethyl ether, the pyrolus ligated, and the abdomen closed. The rats were deprived of food and water for 4 hours until they were surcrified with ethyl ether. The stomach was removed, and gastric juice was collected and measured. The gastric juice was centrifuged at 3000 rpm, and the supernatant was titrated up to pH 7.0 with 0.1N NaOH solution to obtain the acidity of the gastric juice. The amount of the gastric acid output was calculated by multiplying the gastric juice volume by the acidity, and the percent inhibition of acid secretion was obtained according to the following equation. A test compound, suspended in a 3% gum arabic solution, was administered intraduodenally at a dose of 2 ml/kg immediately after the pyrolus ligation.
Inhibition (%)=[(Average amount of gastric acid output in control group--Average amount of gastric acid output in test group)/Average amount of gastric acid secreted […]]×100

Row | IC50 [1] | IC50 [2] | Structure (SMILES) | inhibition in vivo at 10 mg/kg (gastric acid secretion)
1 | 0.07 nM |  | CCOC(CN1C(=O)C(NC(=O)Nc2ccc(C)cc2)(NC(=O)Nc2ccc(C)cc2)c2ccccc21)OC (racemic) [Example 7, (RS)-1-(2-Ethoxy-2-methoxyethyl)-3,3-bis(N'-(4-methylphenyl)ureido)indolin-2-one] | 
2 | 1.2 nM |  | Cc1ccc(NC(=O)CC2(NC(=O)Nc3ccc(C)cc3)C(=O)N(Cc3ccccc3)c3ccccc32)cc1 (racemic) [Example 62, (RS)-1-Benzyl-3-((4-methylphenyl)aminocarbonylmethyl)-3-(N'-(4-methylphenyl)ureido)indolin-2-one] | 
3 | 0.76 nM |  | Cc1ccc(NC(=O)CC2(NC(=O)Nc3ccc(C)cc3)C(=O)N(Cc3ccccn3)c3ccccc32)cc1 (racemic) [Example 65, (RS)-3-((4-Methylhenyl)aminocarbonylmethyl)-3-(N'-(4-methylphenyl)ureido)-1-(2-pyridylmethyl)indolin-2-one] | 
4 | 0.76 nM |  | Cc1ccc(NC(=O)CC2(NC(=O)Nc3ccc(C)cc3)C(=O)N(CCc3ccccc3)c3ccccc32)cc1 (racemic) [Example 66, (RS)-3-((4-Methylphenyl)aminocarbonylmethyl)-3-(N'-(4-methylphenyl)ureido)-1-(2-phenylethyl)indolin-2-one] | 
5 | 1.2 nM | 1.1 nM | CCOC(CN1C(=O)C(CC(=O)Nc2ccc(C)cc2)(NC(=O)Nc2ccc(C)cc2)c2ccccc21)OCC (racemic) [Example 71, (RS)-1-(2,2-Diethoxyethyl)-3-((4-methylphenyl)aminocarbonylmethyl)-3-(N'-(4-methylphenyl)ureido)indolin-2-one] | 48%
6 | 0.9 nM | 4.3 nM | CCOC(CN1C(=O)C(CC(=O)Nc2ccc(C)cc2)(NC(=O)Nc2ccc(C#N)cc2)c2ccccc21)OCC (racemic) [Example 92, (RS)-3-(N'-(4-Cyanophenyl)ureido)-1-(2,2-diethoxyethyl)-3-((4-methylphenyl)aminocarbonylmethyl)indolin-2-one] | 57%
7 | 0.35 nM | 5.1 nM | CCOC(CN1C(=O)C(CC(=O)Nc2cccc(C)c2)(NC(=O)Nc2ccc(C)cc2)c2ccccc21)OCC (racemic) [Example 111, (RS)-1-(2,2-Diethoxyethyl)-3-((3-methylphenyl)aminocarbonylmethyl)-3-(N'-(4-methylphenyl)ureido)indolin-2-one] | 69%
8 | 0.64 nM | 2.4 nM | CCOC(CN1C(=O)C(CC(=O)Nc2ccc(Cl)cc2)(NC(=O)Nc2ccc(C)cc2)c2ccccc21)OCC (racemic) [Example 114, (RS)-3-((4-Chlorophenyl)aminocarbonylmethyl)-1-(2,2-diethoxyethyl)-3-(N'-(4-methylphenyl)ureido)indolin-2-one] | 56%
9 | 0.18 nM | 2.9 nM | CCOC(CN1C(=O)C(CC(=O)Nc2ccc(C)c(C)c2)(NC(=O)Nc2ccc(C)cc2)c2ccccc21)OCC (racemic) [Example 122, (RS)-1-(2,2-Diethoxyethyl)-3-((3,4-dimethylphenyl)aminocarbonylmethyl)-3-(N'-(4-methylphenyl)ureido)indolin-2-one] | 62%
10 | 0.39 nM | 3.6 nM | CCOC(CN1C(=O)C(CC(=O)Nc2cccc(OC)c2)(NC(=O)Nc2ccc(C)cc2)c2ccccc21)OCC (racemic) [Example 129, (RS)-1-(2,2-Diethoxyethyl)-3-((3-methoxyphenyl)aminocarbonylmethyl)-3-(N'-(4-methylphenyl)ureido)indolin-2-one] | 71%
11 | 2.3 nM | 4.9 nM | CCOC(CN1C(=O)C(CC(=O)Nc2ccc(N(C)C)cc2)(NC(=O)Nc2ccc(C)cc2)c2ccccc21)OCC (racemic) [Example 130, (RS)-1-(2,2-Diethoxyethyl)-3-((4-(N,N-dimethylamino)phenyl)aminocarbonylmethyl)-3-(N'-(4-methylphenyl)ureido)indolin-2-one] | 71%
12 | 0.5 nM | 2.2 nM | CCOC(CN1C(=O)C(CC(=O)Nc2ccc(C)cn2)(NC(=O)Nc2ccc(C)cc2)c2ccccc21)OCC (racemic) [Example 138, (RS)-1-(2,2-Diethoxyethyl)-3-(N'-(4-methylphenyl)ureido)-3-((5-methylpyrido-2-yl)aminocarbonylmethyl)indolin-2-one] | 69%
13 | 1.9 nM | 1.5 nM | CCOC(CN1C(=O)C(CC(=O)Nc2ccc(OC)nc2)(NC(=O)Nc2ccc(C)cc2)c2ccccc21)OCC (racemic) [Example 143, (RS)-1-(2,2-Diethoxtyethyl)-3-((2-methoxypyrido-5-yl)aminocarbonylmethyl)-3-(N'-(4-methylphenyl)ureido)indolin-2-one] | 64%
14 | 2.8 nM | 6.5 nM | CCOC(CN1C(=O)C(CC(=O)Nc2ccc(N(C)C)cc2)(NC(=O)Nc2cccc(OC)c2)c2ccccc21)OCC (racemic) [Example 156] | 69%
15 |  | 2.5 nM | CCOC(CN1C(=O)C(NC(=O)Nc2ccc(C)cc2)(NC(=O)Nc2ccc(C)cc2)c2ccccc21)OCC [Example 10, 1-(2,2-Diethoxyethyl)-3,3-bis(N'-(4-methylphenyl)ureido)indolin-2-one] | 59%
16 |  | 2.2 nM | CCOC(CN1C(=O)C(NC(=O)Nc2ccc(F)cc2)(NC(=O)Nc2ccc(F)cc2)c2ccccc21)OCC [Example 14, 1-(2,2-Diethoxyethyl)-3,3-bis(N'-(4-fluorophenyl)ureido)indolin-2-one] | 49%
